Paper PMC8799717, “Pharmacological targeting PIKfyve and tubulin as an effective treatment strategy for double-hit lymphoma” (Cell Death Discovery, 2022)

Columns and labels:
Assay in all cases: biochemical
Design in all cases: KINOMEscan active-site-directed competition binding panel, 468 kinases, percent of DMSO control at 1 uM
Settings in all cases: KINOMEscan binding, percent of DMSO control; read-out: Ctrl%
PAK2 = PAK2 (Homo sapiens, UniProt Q13177)
CSNK2A1 = CSNK2A1 (Homo sapiens, UniProt P68400)
HIPK1 = HIPK1 (Homo sapiens, UniProt Q86Z02)
PRKD1 = PRKD1 (Homo sapiens, UniProt Q15139)
Sequence of PRKD1 (Q15139 whole entry): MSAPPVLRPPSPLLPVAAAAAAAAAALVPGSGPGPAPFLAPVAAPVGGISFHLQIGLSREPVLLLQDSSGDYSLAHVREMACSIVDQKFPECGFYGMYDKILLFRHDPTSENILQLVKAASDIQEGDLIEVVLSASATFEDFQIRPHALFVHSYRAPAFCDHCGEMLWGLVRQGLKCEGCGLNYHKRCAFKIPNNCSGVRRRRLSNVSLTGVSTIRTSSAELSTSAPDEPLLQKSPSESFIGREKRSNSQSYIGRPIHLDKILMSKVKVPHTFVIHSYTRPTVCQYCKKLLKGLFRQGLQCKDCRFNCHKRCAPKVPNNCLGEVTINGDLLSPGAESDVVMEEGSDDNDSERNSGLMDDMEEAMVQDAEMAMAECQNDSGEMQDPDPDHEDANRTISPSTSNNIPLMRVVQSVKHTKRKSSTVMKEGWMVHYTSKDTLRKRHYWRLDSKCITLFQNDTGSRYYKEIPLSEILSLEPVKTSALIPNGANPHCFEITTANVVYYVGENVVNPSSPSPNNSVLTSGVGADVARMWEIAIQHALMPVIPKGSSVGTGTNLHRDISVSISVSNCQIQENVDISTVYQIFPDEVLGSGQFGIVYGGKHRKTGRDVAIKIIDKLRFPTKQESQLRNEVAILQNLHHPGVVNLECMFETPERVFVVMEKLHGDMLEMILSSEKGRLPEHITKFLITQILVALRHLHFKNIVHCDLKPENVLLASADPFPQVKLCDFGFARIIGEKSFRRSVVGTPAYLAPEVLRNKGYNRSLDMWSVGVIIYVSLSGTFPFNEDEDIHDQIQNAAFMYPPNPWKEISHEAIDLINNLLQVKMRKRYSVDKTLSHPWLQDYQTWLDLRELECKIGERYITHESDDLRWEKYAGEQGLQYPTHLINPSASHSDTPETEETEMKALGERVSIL

CASK = CASK (Homo sapiens, UniProt O14936)
Sequence of CASK (O14936 whole entry): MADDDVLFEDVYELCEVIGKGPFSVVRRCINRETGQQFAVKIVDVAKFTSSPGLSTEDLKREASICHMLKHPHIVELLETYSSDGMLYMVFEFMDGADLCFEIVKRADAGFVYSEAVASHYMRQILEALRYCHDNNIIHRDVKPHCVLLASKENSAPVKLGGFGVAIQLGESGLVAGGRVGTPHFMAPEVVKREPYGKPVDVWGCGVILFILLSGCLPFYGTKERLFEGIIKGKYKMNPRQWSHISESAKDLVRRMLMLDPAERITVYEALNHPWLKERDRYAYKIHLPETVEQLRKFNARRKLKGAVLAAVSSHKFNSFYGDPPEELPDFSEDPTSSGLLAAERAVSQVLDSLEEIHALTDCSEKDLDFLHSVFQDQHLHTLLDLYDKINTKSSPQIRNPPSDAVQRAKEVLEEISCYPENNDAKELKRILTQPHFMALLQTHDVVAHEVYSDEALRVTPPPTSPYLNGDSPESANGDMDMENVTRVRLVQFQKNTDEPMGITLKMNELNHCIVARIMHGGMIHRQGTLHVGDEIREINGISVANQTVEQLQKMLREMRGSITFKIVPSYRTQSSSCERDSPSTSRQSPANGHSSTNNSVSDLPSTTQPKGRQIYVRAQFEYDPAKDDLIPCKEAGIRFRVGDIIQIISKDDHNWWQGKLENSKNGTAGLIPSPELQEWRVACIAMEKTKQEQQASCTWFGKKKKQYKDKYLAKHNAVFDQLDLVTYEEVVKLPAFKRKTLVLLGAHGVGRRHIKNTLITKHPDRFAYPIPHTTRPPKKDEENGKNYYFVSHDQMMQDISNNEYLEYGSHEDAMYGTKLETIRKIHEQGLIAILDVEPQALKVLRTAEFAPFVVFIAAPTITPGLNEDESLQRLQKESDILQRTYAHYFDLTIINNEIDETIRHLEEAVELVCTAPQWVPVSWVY

NDR2 = molecular target: T1, NDR2 (Homo sapiens, UniProt Q9Y2H1)
T1 construct: gene STK38L

CDK8 = CDK8 (Homo sapiens, UniProt P49336)
ADCK4 = molecular target: T2, ADCK4 (Homo sapiens, UniProt Q96D53)
T2 construct: gene COQ8B

RIOK1 = RIOK1 (Homo sapiens, UniProt Q9BRS2)
Sequence of RIOK1 (Q9BRS2 whole entry): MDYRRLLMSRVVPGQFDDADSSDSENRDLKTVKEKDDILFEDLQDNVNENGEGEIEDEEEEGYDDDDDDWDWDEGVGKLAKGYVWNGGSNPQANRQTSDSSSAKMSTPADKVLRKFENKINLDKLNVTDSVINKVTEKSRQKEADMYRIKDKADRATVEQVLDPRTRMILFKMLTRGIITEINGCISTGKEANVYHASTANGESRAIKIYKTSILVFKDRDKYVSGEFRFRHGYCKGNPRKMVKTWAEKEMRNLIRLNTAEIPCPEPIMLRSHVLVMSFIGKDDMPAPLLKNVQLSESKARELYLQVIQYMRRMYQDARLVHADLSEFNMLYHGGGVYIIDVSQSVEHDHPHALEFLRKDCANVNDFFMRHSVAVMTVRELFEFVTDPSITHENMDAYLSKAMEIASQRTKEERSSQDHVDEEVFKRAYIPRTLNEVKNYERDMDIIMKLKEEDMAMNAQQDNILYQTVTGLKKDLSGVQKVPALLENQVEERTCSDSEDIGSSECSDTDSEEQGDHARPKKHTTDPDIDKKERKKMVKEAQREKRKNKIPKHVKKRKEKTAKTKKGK

PRKCE = PRKCE (Homo sapiens, UniProt Q02156)
DRAK1 = molecular target: T3, DRAK1 (Homo sapiens, UniProt Q9UEE5)
T3 construct: gene STK17A
T3 sequence (Q9UEE5 whole entry): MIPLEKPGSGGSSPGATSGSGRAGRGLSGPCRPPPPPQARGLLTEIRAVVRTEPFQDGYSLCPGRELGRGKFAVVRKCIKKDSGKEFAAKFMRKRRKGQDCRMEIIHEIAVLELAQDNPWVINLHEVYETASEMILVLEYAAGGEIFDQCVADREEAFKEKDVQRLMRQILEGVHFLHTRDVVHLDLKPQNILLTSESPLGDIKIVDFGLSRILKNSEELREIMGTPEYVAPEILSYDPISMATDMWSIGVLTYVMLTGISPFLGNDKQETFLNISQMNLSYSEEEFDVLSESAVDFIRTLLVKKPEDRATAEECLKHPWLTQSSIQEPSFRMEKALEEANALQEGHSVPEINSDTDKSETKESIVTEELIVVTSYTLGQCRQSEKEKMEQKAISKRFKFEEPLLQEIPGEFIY

ERK5 = molecular target: T4, ERK5 (Homo sapiens, UniProt Q13164)
T4 construct: gene MAPK7

MLK3 = molecular target: T5, MLK3 (Homo sapiens, UniProt Q16584)
T5 construct: gene MAP3K11

ABL2 = ABL2 (Homo sapiens, UniProt P42684)
NIM1 = molecular target: T6, NIM1 (Homo sapiens, UniProt Q8IY84)
T6 construct: gene NIM1K

TTK = TTK (Homo sapiens, UniProt P33981)
[1] = molecular target: T7, ABL1(T315I)-phosphorylated (Homo sapiens, UniProt P00519, T315I)
T7 construct: phosphorylated

TRPM6 = TRPM6 (Homo sapiens, UniProt Q9BX84)
[2] = molecular target: T8, ABL1(T315I)-nonphosphorylated (Homo sapiens, UniProt P00519, T315I)
T8 construct: nonphosphorylated

BTK = BTK (Homo sapiens, UniProt Q06187)
SIK2 = SIK2 (Homo sapiens, UniProt Q9H0K1)
CSNK1G2 = CSNK1G2 (Homo sapiens, UniProt P78368)
Sequence of CSNK1G2 (P78368 whole entry): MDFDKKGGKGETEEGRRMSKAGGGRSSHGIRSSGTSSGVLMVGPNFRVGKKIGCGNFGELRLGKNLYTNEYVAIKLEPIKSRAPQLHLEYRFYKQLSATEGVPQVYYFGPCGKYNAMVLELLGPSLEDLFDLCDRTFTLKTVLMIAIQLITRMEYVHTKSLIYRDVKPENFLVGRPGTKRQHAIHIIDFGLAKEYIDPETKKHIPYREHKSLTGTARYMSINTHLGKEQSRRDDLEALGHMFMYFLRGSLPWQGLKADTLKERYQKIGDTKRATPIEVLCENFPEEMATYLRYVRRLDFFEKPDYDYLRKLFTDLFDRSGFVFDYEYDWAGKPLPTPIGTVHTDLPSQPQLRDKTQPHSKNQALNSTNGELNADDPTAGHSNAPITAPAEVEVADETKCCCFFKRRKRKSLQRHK

BIKE = molecular target: T9, BIKE (Homo sapiens, UniProt Q9NSY1)
T9 construct: gene BMP2K
T9 sequence (Q9NSY1 whole entry): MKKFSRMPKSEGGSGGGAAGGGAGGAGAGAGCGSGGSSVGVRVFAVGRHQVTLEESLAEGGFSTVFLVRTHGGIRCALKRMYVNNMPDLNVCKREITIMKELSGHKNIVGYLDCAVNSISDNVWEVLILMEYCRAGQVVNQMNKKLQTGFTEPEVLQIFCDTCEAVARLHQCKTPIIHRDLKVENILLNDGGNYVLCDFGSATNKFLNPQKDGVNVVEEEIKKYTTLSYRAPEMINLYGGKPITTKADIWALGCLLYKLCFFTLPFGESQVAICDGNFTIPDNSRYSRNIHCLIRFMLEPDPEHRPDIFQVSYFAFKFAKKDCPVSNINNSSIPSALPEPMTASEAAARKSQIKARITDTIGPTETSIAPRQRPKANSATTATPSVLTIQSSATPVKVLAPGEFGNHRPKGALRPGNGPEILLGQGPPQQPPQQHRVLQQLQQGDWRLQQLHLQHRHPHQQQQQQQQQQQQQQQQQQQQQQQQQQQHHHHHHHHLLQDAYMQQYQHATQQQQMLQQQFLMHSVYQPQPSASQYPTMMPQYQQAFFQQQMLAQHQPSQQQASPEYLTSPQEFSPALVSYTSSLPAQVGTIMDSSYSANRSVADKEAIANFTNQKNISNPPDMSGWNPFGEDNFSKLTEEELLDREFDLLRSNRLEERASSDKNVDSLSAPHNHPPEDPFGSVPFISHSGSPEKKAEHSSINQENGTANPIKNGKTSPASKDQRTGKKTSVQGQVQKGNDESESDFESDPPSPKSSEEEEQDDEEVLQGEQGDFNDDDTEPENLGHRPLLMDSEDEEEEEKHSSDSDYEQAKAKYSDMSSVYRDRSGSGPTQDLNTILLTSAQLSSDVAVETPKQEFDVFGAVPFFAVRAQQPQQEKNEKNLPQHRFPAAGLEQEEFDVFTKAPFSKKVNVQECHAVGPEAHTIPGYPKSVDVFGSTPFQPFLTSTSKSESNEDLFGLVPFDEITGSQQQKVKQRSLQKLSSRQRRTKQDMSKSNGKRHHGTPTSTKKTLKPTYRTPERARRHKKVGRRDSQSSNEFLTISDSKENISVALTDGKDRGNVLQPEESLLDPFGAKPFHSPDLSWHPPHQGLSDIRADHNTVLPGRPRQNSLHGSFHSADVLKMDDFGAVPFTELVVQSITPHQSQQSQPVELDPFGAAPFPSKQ

EGFR(G719C) = EGFR(G719C) (Homo sapiens, UniProt P00533, G719C)

Sequence of PAK2 (Q13177 whole entry): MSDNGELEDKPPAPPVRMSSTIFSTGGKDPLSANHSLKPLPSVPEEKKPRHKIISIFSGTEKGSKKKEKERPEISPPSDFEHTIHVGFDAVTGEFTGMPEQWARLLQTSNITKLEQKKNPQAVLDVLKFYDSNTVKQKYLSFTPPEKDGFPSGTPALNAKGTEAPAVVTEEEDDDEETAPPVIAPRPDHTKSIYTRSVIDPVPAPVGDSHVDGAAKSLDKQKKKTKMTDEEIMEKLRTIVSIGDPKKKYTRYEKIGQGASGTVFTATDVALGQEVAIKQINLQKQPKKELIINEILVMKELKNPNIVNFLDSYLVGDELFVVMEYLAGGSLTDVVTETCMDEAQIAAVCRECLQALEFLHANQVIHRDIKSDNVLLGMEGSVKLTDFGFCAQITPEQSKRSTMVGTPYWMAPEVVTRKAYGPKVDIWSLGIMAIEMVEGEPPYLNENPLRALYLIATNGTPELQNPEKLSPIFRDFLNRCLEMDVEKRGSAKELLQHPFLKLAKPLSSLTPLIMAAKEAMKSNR

Cc1ccc(NC(=O)c2cccc(C(F)(F)F)c2)cc1Nc1cc(-c2cccnc2)nc2[nH]ccc12 [HZX-02-059]
remaining binding at 1 µM (PAK2): 88%
remaining binding at 1 µM (CSNK2A1): 81%
remaining binding at 1 µM (HIPK1): 74%
remaining binding at 1 µM (PRKD1): 96%
remaining binding at 1 µM (CASK): 92%
remaining binding at 1 µM (NDR2): 94%
remaining binding at 1 µM (CDK8): 91%
remaining binding at 1 µM (ADCK4): 91%
remaining binding at 1 µM (RIOK1): 98%
remaining binding at 1 µM (PRKCE): 96%
remaining binding at 1 µM (DRAK1): 83%
remaining binding at 1 µM (ERK5): 99%
remaining binding at 1 µM (MLK3): 87%
remaining binding at 1 µM (ABL2): 26%
remaining binding at 1 µM (NIM1): 99%
remaining binding at 1 µM (TTK): 99%
remaining binding at 1 µM [1]: 98%
remaining binding at 1 µM (TRPM6): 50%
remaining binding at 1 µM [2]: 77%
remaining binding at 1 µM (BTK): 100%
remaining binding at 1 µM (SIK2): 87%
remaining binding at 1 µM (CSNK1G2): 96%
remaining binding at 1 µM (BIKE): 94%
remaining binding at 1 µM (EGFR(G719C)): 96%
